Measured values published in patent US10870638B2, “Pyridazinone compound or its salt, and herbicide containing it” (ISHIHARA SANGYO KAISHA, LTD., priority 2016, dated 2020).

Key:
Test in all cases: Test Example 1: foliar treatment, growth inhibition rate on 14th day
Format in all cases: in vivo
Settings in all cases: active ingredient amount 31 g/ha, 14th day after application
[1] = test system: barnyardgrass (Echinochloa crus-qalli L.)
Source text: (§1) Upland field soil was put into a 1/300,000 hectare pot, and seeds of various plants were sown. When the respective plants reached predetermined leaf stage ((1) barnyardgrass (Echinochloa crus-[…].): 0.5 to 2.9 leaf stage, (2) crabgrass (Digitaria sanquinalis L.): 0.5 to 3.0 leaf stage, (3) green foxtail (Setaria viridis L.): 0.5 to 3.2 leaf stage, (4) wild oat (Avena fatua L.): 0.4 to 1.2 leaf stage, (5) italian ryegrass (Lolium multiflorum Lam.): 0.4 to 2.0 leaf stage, (6) redroot pigweed (Amaranthus retroflexus L.): cotyledon stage to 2.2 leaf stage, (7) rice (Oryza sativa L.): 0.2 to 2.7 leaf stage, (8) corn (Zea mays L.): 1.7 to 3.6 leaf stage, (9) wheat (Triticum aestivum L.): 1.3 to 2.3 leaf stage, (10) soybean (Glycine max Merr.); primary leaf stage), wettable powders or emulsifiable concentrates of the compounds of the present invention prepared in accordance with a conventional preparation method, were weighed so as to achieve the prescribed active ingredient amounts, and diluted with water in an amount corresponding to 1,000 liters per 1 hectare (containing 0.1 vol % of an agricultural spreader (surfactant WK manufactured by MARUWA BIOCHEMICAL Co., Ltd.)), and the spray solutions thus prepared were applied for foliar treatment by a small sprayer. On the 14th day after the application, the state of growth of the respective plants was visually observed, and the herbicidal effect was evaluated by a growth inhibition rate (%) of 0 (equivalent to the non-treated area) to 100 (complete kill).

[2] = test system: corn (Zea mays L.)
Source text: as §1

[3] = test system: crabgrass (Digitaria sanquinalis L.)
Source text: as §1

[4] = test system: green foxtail (Setaria viridis L.)
Source text: as §1

[5] = test system: italian ryegrass (Lolium multiflorum Lam.)
Source text: as §1

[6] = test system: redroot pigweed (Amaranthus retroflexus L.)
Source text: as §1

[7] = test system: rice (Oryza sativa L.)
Source text: as §1

[8] = test system: soybean (Glycine max Merr.)
Source text: as §1

[9] = test system: wheat (Triticum aestivum L.)
Source text: as §1

[10] = test system: wild oat (Avena fatua L.)
Source text: as §1

[11] = visual, 0 = non-treated, 100 = complete kill

| Structure (SMILES) | Growth inhibition rate (%) Barnyardgrass [1] [%] | Growth inhibition rate (%) Corn [2] [%] | Growth inhibition rate (%) Crabgrass [3] [%] | Growth inhibition rate (%) Green foxtail [4] [%] | Growth inhibition rate (%) Italian ryegrass [5] [%] | Growth inhibition rate (%) Redroot pigweed [6] [%] | Growth inhibition rate (%) Rice [7] [%] | Growth inhibition rate (%) Soybean [8] [%] | Growth inhibition rate (%) Wheat [9] [%] | Growth inhibition rate (%) Wild oat [10] [%] | Growth inhibition rate (%) Barnyardgrass [1, 11] [%] | Growth inhibition rate (%) Corn [2, 11] [%] | Growth inhibition rate (%) Crabgrass [3, 11] [%] | Growth inhibition rate (%) Green foxtail [4, 11] [%] | Growth inhibition rate (%) Italian ryegrass [5, 11] [%] | Growth inhibition rate (%) Redroot pigweed [6, 11] [%] | Growth inhibition rate (%) Rice [7, 11] [%] | Growth inhibition rate (%) Soybean [8, 11] [%] | Growth inhibition rate (%) Wheat [9, 11] [%] | Growth inhibition rate (%) Wild oat [10, 11] [%] |
| --- | --- | --- | --- | --- | --- | --- | --- | --- | --- | --- | --- | --- | --- | --- | --- | --- | --- | --- | --- | --- |
| CC(=O)Oc1c(C)nn(C)c(=O)c1-c1cc(Oc2nc3cc(Cl)ccc3o2)ccc1C [Compound 2-139] | 90 | 65 | 98 | 90 | 98 | 0 | 98 | 10 | 95 | 98 |  |  |  |  |  |  |  |  |  |  |
| C#CCOc1c(C)nn(C)c(=O)c1-c1cc(Oc2cnc3cc(Cl)ccc3n2)ccc1C [Compound 3-77] |  |  |  |  |  |  |  |  |  |  | 100 | 30 | 90 | 100 | 85 | 0 | 0 | 0 | 25 | 60 |
| CC(=O)Oc1c(C)nn(C)c(=O)c1-c1cc(Oc2ccc(C(F)(F)F)cc2Cl)ccc1C [Compound 2-114] | 98 | 75 | 10 | 80 | 80 | 0 | 10 | 0 | 25 | 83 |  |  |  |  |  |  |  |  |  |  |
| CC(=O)Cn1ncc(O)c(-c2cc(Oc3ncc(C(F)(F)F)cc3Cl)ccc2C)c1=O [1-169] | 90 | 98 | 95 | 99 | 90 | 20 | 10 | 0 | 0 | 90 |  |  |  |  |  |  |  |  |  |  |
| COC(=O)OC(C)Oc1c(C)nn(C)c(=O)c1-c1cc(Oc2cnc3cc(Cl)ccc3n2)ccc1C (stereo not drawn) [Compound 3-44] | 100 | 20 | 99 | 100 | 98 | 0 | 85 | 10 | 85 | 100 |  |  |  |  |  |  |  |  |  |  |
| CCCCC(=O)Oc1c(C)nn(C)c(=O)c1-c1cc(Oc2ncc(C(F)(F)F)cc2Cl)ccc1C [1-135] | 100 | 98 | 99 | 100 | 100 | 0 | 90 | 0 | 100 | 100 |  |  |  |  |  |  |  |  |  |  |
| Cc1ccc(Oc2ccc3nc(Cl)cn3n2)cc1-c1c(O)c(C)nn(C)c1=O [Compound 2-193] | 70 | 65 | 90 | 93 | 0 | 0 | 0 | 0 | 0 | 0 |  |  |  |  |  |  |  |  |  |  |
| CC(=O)Oc1c(C)nn(C)c(=O)c1-c1cc(Oc2nc3ccc(Cl)cc3s2)ccc1C [Compound 2-132] | 90 | 0 | 50 | 80 | 78 |  | 40 | 30 | 70 | 90 |  |  |  |  |  |  |  |  |  |  |
| Cc1ccc(Oc2nc3ccc(Cl)cc3o2)cc1-c1c(O)cnn(CC2CC2)c1=O [Compound 2-186] | 90 | 98 | 99 | 99 | 0 | 0 | 0 | 15 | 0 | 25 |  |  |  |  |  |  |  |  |  |  |
| Cc1ccc(Oc2nc3cc(Cl)ccc3o2)cc1-c1c(O)c(C)nn(C)c1=O [Compound 2-105] | 90 | 65 | 95 | 90 | 80 | 0 | 35 | 25 | 25 | 75 |  |  |  |  |  |  |  |  |  |  |
| Cc1ccc(Oc2ncc3cc(Br)ccc3n2)cc1-c1c(O)c(C)nn(C)c1=O [Compound 2-90] | 90 | 0 | 0 | 75 | 10 | 0 | 0 | 0 | 20 | 0 |  |  |  |  |  |  |  |  |  |  |
| CCCCC(=O)Oc1c(C)nn(C)c(=O)c1-c1cc(Oc2cnc3cc(Cl)ccc3n2)ccc1C [Compound 3-36] | 100 | 40 | 99 | 99 | 99 | 0 | 90 | 40 | 99 | 99 |  |  |  |  |  |  |  |  |  |  |
| COC(=O)OC(C)Oc1c(C)nn(C)c(=O)c1-c1cc(Oc2ncc(C(F)(F)F)cc2Cl)ccc1C (stereo not drawn) [1-130] | 100 | 95 | 99 | 99 | 93 | 0 | 30 | 0 | 80 | 98 |  |  |  |  |  |  |  |  |  |  |
